We go through eight molecules from patent US8470849B2, “7-azaindole derivatives as selective 11-β-hydroxysteroid dehydrogenase type 1 inhibitors” (Merck Patent GmbH, priority 2007, dated 2013).

Type in all cases: biochemical
Test [1] deals with T1, rat 11-beta HSD-1 (Rattus norvegicus, UniProt P16232).
T1 construct: Mice and Rat liver microsome fractions were purchased from TEBU; tissue TEBU; host or cells: rat liver microsome fractions
The experiment in a line: 11beta-HSD1 enzyme assay, rat liver microsome fractions (HTRF cortisol). The note with it: for IC50: read-out: Inhibition of rat 11-beta HSD-1 IC50. The protocol: (§1) Human recombinant 11 beta-hydroxysteroid dehydrogenase type 1 (11 beta-HSD1) and type 2 (11beta-HSD2) enzymes were expressed in E. Coli. Mice and Rat liver microsome fractions were purchased from TEBU.
(§2) Reactions were initiated by addition of 10 μl 11beta-HSD1 (3 μg) from E. Coli, either as microsome fractions from rat and mice liver (2,5 μg). Following mixing, the plates were shaken for 150 minutes at 37° C. The reactions were terminated with 10 μl Acid-18beta glycyrrhetinic stop solution. Determinations of cortisol levels in 11 beta-HSD1 preparations were monitored by HTRF (HTRF cortisol assay from C is bio international).
For orientation: Liver microsomes are a subcellular fraction often used to study metabolism.

For test [2], the target named is T2, human 11-beta HSD-1 (Homo sapiens, UniProt P28845).
T2 construct: made in house; host or cells: E. coli
T2 sequence (P28845 whole entry): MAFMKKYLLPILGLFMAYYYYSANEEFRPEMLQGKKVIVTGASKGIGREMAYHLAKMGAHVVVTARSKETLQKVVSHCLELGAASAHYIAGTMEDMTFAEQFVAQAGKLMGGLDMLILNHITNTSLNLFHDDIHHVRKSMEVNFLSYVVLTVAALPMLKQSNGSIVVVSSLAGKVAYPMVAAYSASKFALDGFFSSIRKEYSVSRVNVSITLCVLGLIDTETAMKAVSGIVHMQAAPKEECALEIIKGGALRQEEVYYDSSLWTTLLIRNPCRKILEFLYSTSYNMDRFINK
Description: 11beta-HSD1 enzyme assay, human recombinant enzyme (HTRF cortisol). Particulars: for IC50: human recombinant enzyme from E. Coli, cortisone/NADPH, 150 minutes at 37° C., read-out: Inhibition of human 11-beta HSD-1 IC50; for Selectivity Ratio human HSD2/HSD1: ratio of IC50 human HSD2 to human HSD1. As to the method: as §1, §2
(In general: TR-FRET usually uses a lanthanide donor and a delayed reading to cut background.)

Test [3] concerns the target T3, mouse 11-beta HSD-1 (Mus musculus, UniProt P50172).
T3 construct: Mice and Rat liver microsome fractions were purchased from TEBU; tissue TEBU; host or cells: mouse liver microsome fractions
The experiment in a line: 11beta-HSD1 enzyme assay, mice liver microsome fractions (HTRF cortisol). Particulars: for IC50: read-out: Inhibition of mouse 11-beta HSD-1 IC50. As to the method: as §1, §2

The target of test [4] is T4, human 11-beta HSD-2 (Homo sapiens, UniProt P80365).
T4 construct: made in house; host or cells: E. coli
T4 sequence (P80365 1-405): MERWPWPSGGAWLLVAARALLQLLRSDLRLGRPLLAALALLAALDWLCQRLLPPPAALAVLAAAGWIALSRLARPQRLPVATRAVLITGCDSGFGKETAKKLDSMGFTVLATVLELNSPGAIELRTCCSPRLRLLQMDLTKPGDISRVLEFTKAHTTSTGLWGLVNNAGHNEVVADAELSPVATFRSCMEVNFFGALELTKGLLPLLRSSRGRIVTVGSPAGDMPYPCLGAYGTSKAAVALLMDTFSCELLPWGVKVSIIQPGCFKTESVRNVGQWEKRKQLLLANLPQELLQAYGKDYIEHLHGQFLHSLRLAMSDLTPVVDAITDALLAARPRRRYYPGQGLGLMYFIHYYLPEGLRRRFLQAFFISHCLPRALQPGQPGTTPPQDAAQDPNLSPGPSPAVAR
Description: 11beta-HSD2 enzyme assay, human recombinant enzyme. Particulars: cortisol/NAD, read-out: Inhibition of human 11-beta HSD-2 IC50.
From the text: as §1

T3 sequence (P50172 whole entry): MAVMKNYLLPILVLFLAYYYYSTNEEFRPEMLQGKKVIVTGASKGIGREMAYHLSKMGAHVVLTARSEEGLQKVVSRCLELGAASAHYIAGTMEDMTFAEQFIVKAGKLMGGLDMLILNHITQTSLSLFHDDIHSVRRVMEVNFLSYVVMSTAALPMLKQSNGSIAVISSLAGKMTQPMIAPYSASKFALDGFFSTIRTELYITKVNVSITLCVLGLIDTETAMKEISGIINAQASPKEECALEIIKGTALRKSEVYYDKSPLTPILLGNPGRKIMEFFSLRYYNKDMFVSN
T1 sequence (P16232 whole entry): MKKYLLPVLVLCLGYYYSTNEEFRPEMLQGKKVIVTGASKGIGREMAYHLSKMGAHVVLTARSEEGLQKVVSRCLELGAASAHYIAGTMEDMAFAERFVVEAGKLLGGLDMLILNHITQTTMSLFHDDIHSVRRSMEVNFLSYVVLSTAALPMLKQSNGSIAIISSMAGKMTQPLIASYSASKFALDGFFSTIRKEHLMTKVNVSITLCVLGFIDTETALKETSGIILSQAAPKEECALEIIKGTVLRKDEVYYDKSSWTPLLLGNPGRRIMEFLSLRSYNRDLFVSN

Take `CC(C)(COc1ccc(F)cc1)CC(=O)N1CCC(c2c[nH]c3ncccc23)CC1` [Ex. 14, 4-(4-Fluoro-phenoxy)-3,3-dimethyl-1-[4-(1H-pyrrolo[2,3-b]pyridine-3-yl)-piperidine-1-yl]-butan-1-one]: in test [1] (at 1 μM), the “Inhibition of rat 11-beta HSD-1, activity in % of Ctrl” value is 85% of Ctrl. In addition, in test [2], the half-maximal inhibitory concentration (IC50) was 0.11 µM. Moreover, in test [3] (at 1 μM), the “Inhibition of mouse 11-beta HSD-1, activity in % of Ctrl” value is recorded as 86% of Ctrl.

As to `CC(C)(C(=O)N1CCC(c2c[nH]c3ncccc23)C1)c1ccc(Cl)cc1` (stereo not shown) [Ex. 9, 2-(4-Chlorophenyl)-2-methyl-1-[3-(1H-pyrrolo[2,3-b]pyridine-3-yl)-pyrrolidine-1-yl]-propan-1-one], in test [1], the 50% inhibitory concentration (IC50) is 0.92 µM. Moreover, in test [2], the IC50 stood at 0.0098 µM and the Selectivity Ratio human HSD2/HSD1 was over 1000.

On to `CC(C)(COc1ccc(F)cc1)CC(=O)N1CCC(c2c[nH]c3ncccc23)C1` (stereo not shown) [Ex. 17, 4-(4-Fluoro-phenoxy)-3,3-dimethyl-1-[3-(1H-pyrrolo[2,3-b]pyridine-3-yl)-pyrrolidine-1-yl]-butan-1-one], for which the half-inhibitory concentration (IC50) worked out at 0.016 µM in test [2] and 2.1 µM in test [3].

`O=C(C1CCCCC1)N1CCC(c2c[nH]c3ncccc23)C1` (stereo not shown) [Ex. 3, (Cycloxexyl)-[3-(1H-pyrrolo[2,3-b]pyridine-3-yl)-pyrrolidine-1-yl]-methanone]: the values for the IC50 in test [1], in test [2] and in test [3] were 0.51 µM, 0.54 µM and 0.95 µM, respectively.

Regarding `O=C(N1CCC(c2c[nH]c3ncccc23)C1)C1(c2ccccc2)CC1` (stereo not shown) [Ex. 8, (1-Phenyl-cyclopropyl)-[3-(1H-pyrrolo[2,3-b]pyridine-3-yl)-pyrrolidine-1-yl]-methanone], the IC50 in test [1] came out at 0.048 µM. Further, in test [2], the half-maximal inhibitory concentration (IC50) was 0.05 µM and the “Selectivity Ratio human HSD2/HSD1” value is over 200.

`CC(C)(C(=O)N1CCC(c2c[nH]c3ncccc23)CC1)N1CCN(c2ccc(C(F)(F)F)cn2)CC1` [Ex. 13, 2-Methyl-1-[4-(1H-pyrrolo[2,3-b]pyridin-3-yl)-piperidine-1-yl]-2-[4-(5-trifluoromethyl-pyridine-2-yl)-piperazine-1-yl]-propan-1-one]: the 50% inhibitory concentration (IC50) in test [2] worked out at 1.14 µM.

Turning to `O=C(CS(=O)(=O)c1ccc(Cl)cc1)N1CCC(c2c[nH]c3ncccc23)C1` (stereo not shown) [Ex. 20, 2-(4-Chloro-benzenesulfonyl)-1-[3-(1H-pyrrolo[2,3-b]pyridine-3-yl)-pyrrolidine-1-yl]-ethanone], in test [2], the IC50 turned out to be 0.029 µM.

In the case of `CN(C)c1ccc(C(=O)N2CCC(c3c[nH]c4ncccc34)C2)cc1` (stereo not shown) [Ex. 7, (4-Dimethylaminophenyl)-[3-(1H-pyrrolo[2,3-b]pyridine-3-yl)-pyrrolidine-1-yl]-methanone], the IC50 was over 10 µM in test [4], 0.043 µM in test [1] and 0.17 µM in test [3].

A word on the IC50: it is the concentration at which inhibition is half-maximal.
